Five molecules from patent US6686209B2, “Reagents for detecting cannabinoids” (Lifepoint, Inc., priority 2001, dated 2004) can be followed below.

This test concerns antibodies against Δ^9-THC. The test can be described thus: Cross-reactivity by displacement of cannabinol-based tracer from immobilized antibody (continuous flow). The conditions noted are these: for MAX FI (mV): sample with 25 ng/mL of unlabeled substance, cannabinol-based tracer (FIG. 10) displaced, 0 ng/mL baseline 422; for percent cross-reactivity: 25 ng/mL. Format: binding. The method, then: The lower binding affinity of an antibody to a particular tracer may be measured by the percent cross-reactivity of the antibody to the tracer as compared to the analyte in a sample. For example, immobilized antibodies against Δ^9-THC were bound with the cannabinol-based tracer (shown in FIG. 10) similar to the methods as described in Example VII. Different samples containing 25 ng/mL of Δ^9-THC (unlabeled), Δ^8-THC (unlabeled), unlabeled 9-carboxy-Δ^9-THC (THCA), cannabidiol (unlabeled), or unlabeled cannabinol were flowed through different columns having the antibody-tracer complex to determine the amount of cross-reactivity. The amount of tracer displaced was then compared between the different samples.
Using Δ^9-THC as the standard (i.e., Δ^9-THC set at 100% cross-reactivity) (1602/1602)), 9-carboxy-Δ^9-THC has a percent cross-reactivity of about 540% (8700/1602), and cannabinol has a percent cross-reactivity of about 79% (1266/1602). If 9-carboxy-Δ^9-THC were used as the standard (i.e., 9-carboxy-Δ^9-THC set at 100% cross-reactivity (8700/8700)), then the percent cross-reactivity for cannabinol would be about 14.5% (1266/8700). If Δ^8-THC were used as a standard (i.e., A ^8-THC set at 100% cross-reactivity (1488/1488)), then the present cross-reactivity for cannabinol would be about 85% (1266/1488).

Turning to `C=C(C)[C@@H]1CCC(C)=C[C@H]1c1c(O)cc(CCCCC)cc1O` [Cannabidiol, cannabidiol], the “MAX FI (mV)” value worked out at 624 mV.
Take `CCCCCc1cc(O)c2c(c1)OC(C)(C)c1ccc(C)cc1-2` [Cannabinol, 6,6,9-trimethyl-3-pentyl-6H-dibenzo[b,d]pyran-1-ol]: the “MAX FI (mV)” value was found to be 1266 mV. Under “9-carboxy-Δ^9-THC as the standard (100%)”, the percent cross-reactivity result is listed as “about 14.5%”. Moreover, the percent cross-reactivity result (Δ^8-THC as the standard (100%)) is listed as “about 85%”. Besides, under “Δ^9-THC as the standard (100%)”, the percent cross-reactivity result was “about 79%”.
For `CCCCCc1cc(O)c2c(c1)OC(C)(C)[C@@H]1CCC(C(=O)O)=C[C@@H]21` [THCA, 9-carboxy-Δ^9-THC], the “MAX FI (mV)” value stood at 8700 mV. The percent cross-reactivity result (Δ^9-THC as the standard (100%)) is reported as “about 540%”.
Turning to `CCCCCc1cc(O)c2c(c1)OC(C)(C)[C@@H]1CC=C(C)C[C@@H]21` [Δ^8-THC], the “MAX FI (mV)” value amounted to 1488 mV.
Take `CCCCCc1cc(O)c2c(c1)OC(C)(C)[C@@H]1CCC(C)=C[C@@H]21` [Δ^9-THC, Δ^9-tetrahydrocannabinol]: the “MAX FI (mV)” value was 1602 mV.
